We go through two compounds from patent US6130238A, “3-(cyclohexanoheteroarylidenyl)-2-indolinone protein tyrosine kinase inhibitors” (Sugen, Inc., priority 1998, dated 2000).

pIC50: −log10 of the molar value. Bounds are passed on as bounds.

The target in one experiment is T1, EGFR (Homo sapiens, UniProt P00533).
T1 construct: expressed in transfected cells; host or cells: NIH 3T3/C7 cell line
Briefly: EGF Receptor ELISA (NIH 3T3/C7 cells). It counts as cell-based. The procedure:
(§1) IC50 refers to the amount (in micromoles, μM) of compound required to achieve 50% inhibition of the activity of the particular kinase being tested as compared to the activity of an untreated control.
(§2) The cellular/catalytic assays described herein are performed in an ELISA format. The general procedure is a follows: a compound is introduced to cells expressing the test kinase, either naturally or recombinantly, for some period of time after which, if the test kinase is a receptor, a ligand known to activate the receptor's activity is added. The cells are lysed and the lysate is transferred to the wells of an ELISA plate previously coated with a specific antibody recognizing the substrate of the enzymatic phosphorylation reaction. Non-substrate components of the cell lysate are washed away and the amount of phosphorylation on the substrate is detected with an antibody specifically recognizing phosphotyrosine compared with control cells that were not contacted with a test compound.
EGF Receptor kinase activity in cells genetically engineered to express human EGF-R can be measured as described below:
1. […]
12. The maximal phosphotyrosine signal is determined by subtracting the value of the negative controls from the positive controls. The percent inhibition of phosphotyrosine content for extract-containing wells is then calculated, after subtraction of the negative controls.
On the technique in general: An ELISA detects its analyte on a solid surface through an enzyme-linked reagent.

Another experiment has as its target T2, LCK (Homo sapiens, UniProt P06239).
T2 construct: made in house; host or cells: Schizosaccharomyces pombe SP200, pRSP expression plasmid
Briefly: Biochemical lck Assay--ELISA.
Source text: as §1
h. Biochemical lck Assay--ELISA
This assay is used to determine lck protein kinase activities measuring phosphorylation of GST-.zeta. as the readout.
a. Yeast transformed with lck. Schizosaccharomyces Pombe is used to express recombinant Lck (Superti-Furga, et al., EMBO J, 12:2625-2634; Superti-Furga, et al., Nature Biotech., 14:600-605). S. Pombe strain SP200 (h-s leul.32 ura4 ade210) is grown as described and transformations with pRSP expression plasmids are done by the lithium acetate method (Superti-Furga, supra). Cells are grown in the presence of 1 μM thiamine […].
a. Preparation of Lck coated ELISA plate.
(§3) c. Kinase assay procedure.
2. Add 0.08 ml Kinase Reaction Mixture per well (containing 10 μl of 10× Kinase Buffer and 2 μg GST-.zeta. per well diluted with water).
(§4) 3. Add 10 μl of compound diluted in water containing 10% DMSO and pre-incubate for 15 minutes at room temperature.
4. Start kinase reaction by adding 10 μl/well of 0.1 mM ATP in water (10 μM ATP final).
5. Shake ELISA plate for 60 min. at room temperature.
14. Develop with Turbo TMB.

The next experiment deals with T3, FLK-1R (Mus musculus, UniProt P35918).
T3 construct: expressed in transfected cells; host or cells: NIH3T3 C7#3 cells
T3 sequence (P35918 20-1345): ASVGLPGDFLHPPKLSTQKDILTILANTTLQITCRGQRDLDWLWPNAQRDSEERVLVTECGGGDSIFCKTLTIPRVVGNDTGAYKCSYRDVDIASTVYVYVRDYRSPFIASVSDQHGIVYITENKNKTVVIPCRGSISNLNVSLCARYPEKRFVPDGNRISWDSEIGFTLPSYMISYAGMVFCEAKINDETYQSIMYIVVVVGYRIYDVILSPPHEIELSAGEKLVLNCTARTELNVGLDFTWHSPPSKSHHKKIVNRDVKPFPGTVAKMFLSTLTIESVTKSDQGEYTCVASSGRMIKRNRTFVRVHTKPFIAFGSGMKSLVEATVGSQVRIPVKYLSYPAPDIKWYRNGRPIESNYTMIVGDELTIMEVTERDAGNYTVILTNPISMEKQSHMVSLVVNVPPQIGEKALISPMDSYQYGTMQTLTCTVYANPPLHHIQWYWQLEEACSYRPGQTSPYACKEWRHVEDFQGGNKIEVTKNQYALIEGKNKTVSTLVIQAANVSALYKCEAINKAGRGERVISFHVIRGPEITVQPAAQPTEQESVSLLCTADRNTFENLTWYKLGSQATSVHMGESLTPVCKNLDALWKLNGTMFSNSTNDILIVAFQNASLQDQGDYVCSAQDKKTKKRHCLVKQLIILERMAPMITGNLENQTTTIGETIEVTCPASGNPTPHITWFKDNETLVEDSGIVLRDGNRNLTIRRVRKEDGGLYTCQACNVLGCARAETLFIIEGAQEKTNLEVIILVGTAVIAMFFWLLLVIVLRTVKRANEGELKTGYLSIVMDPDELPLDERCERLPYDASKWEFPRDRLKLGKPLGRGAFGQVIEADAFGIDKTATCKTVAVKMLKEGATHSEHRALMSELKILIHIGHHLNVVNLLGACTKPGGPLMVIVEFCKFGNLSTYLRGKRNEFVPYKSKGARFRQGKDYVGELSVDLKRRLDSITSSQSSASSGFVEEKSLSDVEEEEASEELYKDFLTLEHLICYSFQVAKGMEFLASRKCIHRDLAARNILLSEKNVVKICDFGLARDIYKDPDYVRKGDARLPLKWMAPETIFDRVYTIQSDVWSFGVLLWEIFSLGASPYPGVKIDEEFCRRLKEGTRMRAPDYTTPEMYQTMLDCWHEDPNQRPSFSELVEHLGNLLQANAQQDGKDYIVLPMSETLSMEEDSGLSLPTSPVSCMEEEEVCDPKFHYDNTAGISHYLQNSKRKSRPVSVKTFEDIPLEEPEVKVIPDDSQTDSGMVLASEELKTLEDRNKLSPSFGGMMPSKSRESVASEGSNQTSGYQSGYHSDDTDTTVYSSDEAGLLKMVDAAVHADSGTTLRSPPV
In words: FLK-1 receptor kinase activity, cellular ELISA (NIH3T3 C7#3 cells, VEGF stimulated). Type of experiment: cell-based.

Another experiment deals with FAK (Homo sapiens, UniProt Q05397). Briefly: FAK kinase inhibition. Type of experiment: biochemical.
Chain of FAK (Q05397 whole entry, species assumed): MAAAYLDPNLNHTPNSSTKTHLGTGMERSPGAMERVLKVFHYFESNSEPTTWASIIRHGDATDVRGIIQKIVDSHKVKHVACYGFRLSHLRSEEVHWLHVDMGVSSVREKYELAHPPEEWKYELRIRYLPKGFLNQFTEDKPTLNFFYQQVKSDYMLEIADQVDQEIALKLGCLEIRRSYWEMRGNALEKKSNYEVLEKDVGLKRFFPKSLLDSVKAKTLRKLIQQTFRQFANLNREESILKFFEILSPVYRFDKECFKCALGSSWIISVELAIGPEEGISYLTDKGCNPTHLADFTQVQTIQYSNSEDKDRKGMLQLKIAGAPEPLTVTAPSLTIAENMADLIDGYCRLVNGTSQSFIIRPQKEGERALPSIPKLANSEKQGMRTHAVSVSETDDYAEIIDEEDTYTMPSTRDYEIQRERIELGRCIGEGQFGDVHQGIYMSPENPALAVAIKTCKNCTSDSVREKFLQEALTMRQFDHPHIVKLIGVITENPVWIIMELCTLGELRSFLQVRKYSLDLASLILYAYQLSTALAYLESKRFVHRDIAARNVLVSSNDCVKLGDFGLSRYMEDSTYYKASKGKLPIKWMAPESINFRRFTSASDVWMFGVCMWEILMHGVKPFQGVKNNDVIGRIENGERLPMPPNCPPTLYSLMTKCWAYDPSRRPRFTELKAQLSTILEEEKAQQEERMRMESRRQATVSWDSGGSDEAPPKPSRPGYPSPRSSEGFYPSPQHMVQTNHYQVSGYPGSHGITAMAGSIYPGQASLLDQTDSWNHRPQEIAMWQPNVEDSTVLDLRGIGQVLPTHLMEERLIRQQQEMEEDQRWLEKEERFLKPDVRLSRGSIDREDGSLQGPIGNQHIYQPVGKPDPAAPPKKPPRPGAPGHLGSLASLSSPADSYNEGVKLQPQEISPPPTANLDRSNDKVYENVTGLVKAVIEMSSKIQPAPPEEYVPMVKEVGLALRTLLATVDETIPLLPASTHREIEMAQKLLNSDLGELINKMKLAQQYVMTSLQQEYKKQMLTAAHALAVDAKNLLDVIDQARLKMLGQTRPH
Source text: as §1

Another experiment concerns the target T4, SRC (Gallus gallus, UniProt P00523).
T4 construct: made in house; host or cells: Schizosaccharomyces pombe SP200, pRSP expression plasmid; yeast from Courtneidge Laboratory (Sugen)
In words: Biochemical src assay--ELISA.
Source text: as §1
g. Biochemical src assay--ELISA
This assay is used to determine src protein kinase activity measuring phosphorylation of a biotinylated peptide as the readout.
h. Anti-src (327) mab: Schizosaccharomyces Pombe is used to express recombinant Src (Superti-Furga, et al., EMBO J., 12:2625-2634; Superti-Furga, et al., […]., 14:600-605). S. Pombe strain SP200 (h-s leul.32 ura4 ade210) is grown as described and transformations are pRSP expression plasmids are done by the lithium acetate method (Superti-Furga, supra). Cells are grown in the presence of 1 μM thiamine to repress expression from the nmtl promoter or in the absence of thiamine to induce expression.
a. Preparation of src coated ELISA plate.
as §3
2. Add 0.08 ml Kinase Reaction Mixture per well (containing 10 μl of 10× Kinase Buffer and 10 μM (final concentration) biotin-EEEYEEYEEEYEEEYEEEY per well diluted in water.
as §4
4. Start kinase reaction by adding 10 μl/well of 0.05 mM ATP in water (5 μM ATP final).
5. Shake ELISA plate for 15 min. at room temperature.
10. […]

Another experiment has as its system PDGFR. In words: PDGF-R ELISA (U1242 cells). Type of experiment: cell-based. The procedure: as §1, §2
All cell culture media, glutamine, and fetal bovine serum can be purchased from Gibco Life Technologies (Grand Island, NY) unless otherwise specified. All cells are grown in a humid atmosphere of 90-95% air and 5-10% CO2 at 37° C. All cell lines are routinely subcultured twice a week and are negative for mycoplasma as determined by the Mycotect method (Gibco). […]

Experiment [1] deals with HUV-EC-C cells. In words: HUV-EC-C Assay, VEGF (3H-thymidine incorporation). Type of experiment: cell-based, human. Particulars: read-out: HUV-EC-C (ATCC) VEGF.
Source text: as §1
(§5) The cellular/biologic assays described herein measure the amount of DNA made in response to activation of a test kinase, which is a general measure of a proliferative response. The general procedure for this assay is as follows: a compound is introduced to cells expressing the test kinase, either naturally or recombinantly, for some period of time after which, if the test kinase is a receptor, a ligand known to activate the receptor's activity is added. After incubation at least overnight, a DNA labeling reagent such as Bromodeoxy-uridine (BrdU) or 3H-thymidine is added. The amount of labeled DNA is detected with either an anti-BrdU antibody or by measuring radioactivity and is compared to control cells not contacted with a test compound.
(§6) The following protocol may also be used to measure a compound's activity against PDGF-R, FGF-R, VEGF, aFGF or Flk-1/KDR, all of which are naturally expressed by HUV-EC cells.
1. […]
For orientation: Uptake of a labelled nucleoside into DNA is a usual measure of proliferation.

Experiment [2] concerns HUV-EC-C cells. In words: HUV-EC-C Assay, aFGF (3H-thymidine incorporation). It counts as cell-based, human. Particulars: read-out: HUV-EC-C (ATCC) aFGF.
Source text: as §1, §5, §6
1. […]

T2 sequence (P06239 whole entry, species assumed): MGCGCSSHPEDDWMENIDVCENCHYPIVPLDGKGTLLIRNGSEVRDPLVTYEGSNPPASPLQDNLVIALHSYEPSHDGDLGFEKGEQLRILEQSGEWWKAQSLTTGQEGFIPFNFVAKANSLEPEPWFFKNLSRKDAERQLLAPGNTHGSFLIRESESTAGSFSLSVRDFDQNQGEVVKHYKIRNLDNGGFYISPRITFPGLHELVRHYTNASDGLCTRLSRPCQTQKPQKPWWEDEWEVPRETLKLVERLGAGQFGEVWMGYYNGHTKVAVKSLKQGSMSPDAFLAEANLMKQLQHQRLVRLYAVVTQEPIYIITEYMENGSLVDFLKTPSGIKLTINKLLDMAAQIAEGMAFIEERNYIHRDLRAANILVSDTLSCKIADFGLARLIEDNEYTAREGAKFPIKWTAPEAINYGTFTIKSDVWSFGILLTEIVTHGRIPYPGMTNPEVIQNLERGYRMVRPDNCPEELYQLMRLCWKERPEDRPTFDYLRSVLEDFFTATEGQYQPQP
T1 sequence (P00533 25-1210): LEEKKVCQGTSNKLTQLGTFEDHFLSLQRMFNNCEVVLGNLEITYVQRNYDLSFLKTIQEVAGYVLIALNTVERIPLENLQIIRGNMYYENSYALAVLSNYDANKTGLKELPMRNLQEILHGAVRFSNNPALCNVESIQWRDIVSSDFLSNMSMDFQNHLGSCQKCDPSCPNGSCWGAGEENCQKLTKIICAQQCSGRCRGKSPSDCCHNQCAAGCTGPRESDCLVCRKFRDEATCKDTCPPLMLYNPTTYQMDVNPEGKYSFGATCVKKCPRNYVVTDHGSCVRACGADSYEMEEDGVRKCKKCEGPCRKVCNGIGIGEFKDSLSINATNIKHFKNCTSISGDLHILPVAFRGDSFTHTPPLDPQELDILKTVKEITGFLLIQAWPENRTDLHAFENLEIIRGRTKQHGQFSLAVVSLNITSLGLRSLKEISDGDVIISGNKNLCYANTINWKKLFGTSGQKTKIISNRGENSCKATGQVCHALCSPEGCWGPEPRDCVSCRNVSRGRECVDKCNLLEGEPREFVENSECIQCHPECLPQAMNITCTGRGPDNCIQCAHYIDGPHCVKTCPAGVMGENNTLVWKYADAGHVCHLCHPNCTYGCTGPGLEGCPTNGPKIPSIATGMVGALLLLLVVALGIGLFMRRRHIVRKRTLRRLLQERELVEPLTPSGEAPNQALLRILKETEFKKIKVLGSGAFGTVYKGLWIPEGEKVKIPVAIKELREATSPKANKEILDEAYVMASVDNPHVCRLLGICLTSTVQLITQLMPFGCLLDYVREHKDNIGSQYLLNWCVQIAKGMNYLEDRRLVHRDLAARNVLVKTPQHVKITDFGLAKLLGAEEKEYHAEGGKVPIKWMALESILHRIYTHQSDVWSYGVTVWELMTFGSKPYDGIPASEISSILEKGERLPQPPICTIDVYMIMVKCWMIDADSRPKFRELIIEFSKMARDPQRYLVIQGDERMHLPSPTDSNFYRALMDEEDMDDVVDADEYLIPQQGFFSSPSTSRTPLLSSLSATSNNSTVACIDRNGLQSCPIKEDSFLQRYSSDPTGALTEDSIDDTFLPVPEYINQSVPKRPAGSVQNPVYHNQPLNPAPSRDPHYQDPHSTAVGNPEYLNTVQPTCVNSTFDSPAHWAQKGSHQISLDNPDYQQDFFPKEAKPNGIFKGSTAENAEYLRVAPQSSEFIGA

In the case of `CN(C)S(=O)(=O)c1ccc2c(c1)C(=CC1=CC3=C(CCCC3)C1)C(=O)N2` [3-(4,5,6,7-tetrahydroinden-2-methyldenyl)-5-[N,N-dimethylaminosulfonyl]2-indolinone], the pIC50 on EGFR is less than 4.00; against LCK, 6.30; on FLK-1R, less than 4.00; at FAK it was less than 5.00; at SRC, 7.00; in the experiment with PDGFR, less than 4.00.

For the compound `NS(=O)(=O)c1ccc2c(c1)C(=CC1=CC3=C(CCCC3)C1)C(=O)N2` [3-(4,5,6,7-tetrahydroinden-2-methylidenyl)-5-[aminosulfonyl]-2-indolinone], the pIC50 at EGFR is less than 4.00; at LCK, 6.15; in the experiment on HUV-EC-C cells [1] (Homo sapiens) it was 6.19; with HUV-EC-C cells [1], 5.97; in the experiment with HUV-EC-C cells [2] (Homo sapiens), 5.62; with HUV-EC-C cells [2], 5.48. The pIC50 was less than 4.00 against FLK-1R, less than 5.00 on FAK, 6.10 against SRC and 6.00 in the experiment on PDGFR.
